This note sets out measurements from patent US10238619B1, “Composition and method of using the same” (priority 2017, dated 2019).

Molecules are shown by their SMILES.

Test [1] relates to persistent (biofilm) form of Borrelia garinii. Briefly: effect on biofilm-like colonies, crystal violet staining. The test is classed as cell-based, Borrelia garinii CIP103362. The following applies: for efficacy against biofilm compared with combinations (Mix 1 and Mix 2): individual ingredient 0.075 mg/ml; for susceptibility of biofilm: 0.3 mg/ml, 72 hours. On the procedure: (§1) Two Borrelia species, namely, Borrelia burgdorferi and Borrelia garinii were tested in this study. Low passage isolates of the B31 strain of B. burgdorferi and CIP103362 strain of B. garinii were obtained from the American Type Culture Collection (Manassas, Va.). The stocks of both species were cultured in commonly used conditions, i.e. medium such as Barbour-Stoner-Kelly H (BSK-H) supplemented with 6% rabbit serum (Sigma, St Louis, Mo.) without antibiotics at 33° C. with 5% CO2, in sterile screw-cap 15 mL polypropylene tubes with or without gentile shaking depends on type of experiment. B31 strain is an isolate from Ixodes dammini whereas CIP103362 strain is an isolate from Ixodes ricinus. Both strains are well known human pathogenic factors of Lyme disease. So far, Borrelia burgdorferi has been found in ticks from North America and Eurasia, while Borrelia garinii only in ticks in Eurasia.
(§2) The strains of B. burgdorferi and B. garinii were prepared for testing as described in the art (Sapi et al., 2011). Briefly, the strains were activated from original cryobank vials and inoculated into 10 mL BSK-H compete medium, and maintained at 33° C. For generation of homogeneous cultures of B. burgdorferi or B. garinii, bacterial cells were inoculated and maintained in a shaking incubator at 33° C. and 250 rpm, where there is no biofilm formation (Sapi et al., 2011; supported by own observation). For generation of biofilm-like colonies of B. burgdorferi or B. garinii, bacterial cells were inoculated in four-well chambers (BD Biosciences, Sparks, Md.) coated with rat-tail collagen type I and incubated for 1 week without shaking.
(§3) Evaluation of test compounds/mixtures on bacterial biofilm. Qualitative effect of the individual test compounds and their mixtures against biofilm-like colonies of B. burgdorferi and B. garinii was evaluated using commonly used and well accepted crystal violet (CV) staining method, according to protocol provided by Sapi et al. Briefly, 1×10^7 bacterial cells/mL from homogeneous cultures of spirochetes were grown on extracellular matrix proteins (i.e., collagen type I) coated four-well chambers and incubated for 1 week.
(§4) After the 1 week of incubation, biofilm-like colonies were treated with various compounds/mixtures. Control wells were treated with ethanol (i.e., 0.075-0.3 mg/ml) alone. For doxycycline, as a positive control, the final used concentration was 0.03% (v/v). The chambers were then incubated at 33° C. for 72 hours. The whole experiment was repeated three times for each strain and each concentration. Next, all wells were fixed with 500 μL of cold methanol-formalin (1:1) for 30 minutes and stained with 1 mL of crystal violet (0.1%) for 10 minutes. The biofilm-like colonies were carefully washed three times with 1×PBS and 1 mL of methanol was added to each well to extract a dye, which was measured at 595 nm wavelength.

For test [2], the system named is persistent (biofilm) form of Borrelia burgdorferi. Described as above. The following applies: for efficacy against biofilm compared with combinations (Mix 1 and Mix 2): individual ingredient 0.075 mg/ml; for susceptibility of biofilm: 0.3 mg/ml, 72 hours. The test is classed as cell-based, Borrelia burgdorferi B31. On the procedure: as §1, §2, §3, §4
The test system of test [3] is active (spirochete) form of Borrelia garinii. The test can be described thus: bacteriostatic/bactericidal effect on spirochetes, LIVE/DEAD BacLight (SYTO9/IP) fluorescence. The test is classed as cell-based, Borrelia garinii CIP103362. The following applies: individual compound 0.3 mg/ml. As for the experimental part:
as §1, with “So far, Borrelia burgdorferi has been found in ticks from North America and Eurasia, while Borrelia garinii only in ticks in Eurasia.” left out
(§5) Evaluation of bacteriostatic and bactericidal effect of individual test compounds and their mixtures on test microorganisms. To determine what compound and/or mixture will have the bacteriostatic and/or bactericidal effect a fluorescence method was used according to Sapi et al. Briefly, 5×10^6 bacterial cells/mL of the homogenous bacterial suspension was inoculated into each sterile 1.8 mL test tightly caps screwed tubes containing 1 mL BSK-H medium, supplemented with the test compound/mixture of interest. […] The tubes were then incubated at 33° C. and viability was monitored at regular intervals for up to 72 hours. […]

Test [4] deals with active (spirochete) form of Borrelia burgdorferi. The test is described as above. The test is classed as cell-based, Borrelia burgdorferi B31. The following applies: individual compound 0.3 mg/ml. On the procedure:
as §1, with “So far, Borrelia burgdorferi has been found in ticks from North America and Eurasia, while Borrelia garinii only in ticks in Eurasia.” left out
as §5

Consider `CCCCC/C=C\C/C=C\CCCCCCCC(=O)O` [linoleic acid], for which the “efficacy against biofilm compared with combinations (Mix 1 and Mix 2)” value in test [1] and in test [2] was “lower efficacy against biofilm than their combinations” in each case.

As to `C=CCc1ccc(O)c(OC)c1` [eugenol], the susceptibility of biofilm entry in test [1] and in test [2] was “susceptible” in each case. Further, the “efficacy against biofilm compared with combinations (Mix 1 and Mix 2)” value in test [1] and in test [2] was “lower efficacy against biofilm than their combinations” in each case. Besides, the bactericidal effect in test [3] (after 6 hours of incubation) is 50%; in test [3] (after 24 hours of incubation), 100%; in test [4] (after 6 hours of incubation), 50%; in test [4] (after 24 hours of incubation), 100%.

Consider `C=C(C)[C@@H]1CC=C(C)C(=O)C1` [R-carvone], for which the “efficacy against biofilm compared with combinations (Mix 1 and Mix 2)” value in test [1] and in test [2] was “lower efficacy against biofilm than their combinations” in each case.

On to `CC(C)=CCCC(C)=CC=O` [citral], for which, in test [1], the susceptibility of biofilm result is “susceptible”; the “efficacy against biofilm compared with combinations (Mix 1 and Mix 2)” value is “lower efficacy against biofilm than their combinations”. Also, in test [2], the susceptibility of biofilm entry is given as “susceptible”; the “efficacy against biofilm compared with combinations (Mix 1 and Mix 2)” value is “lower efficacy against biofilm than their combinations”.
